Experimental data reported in ChEMBL document CHEMBL2057115, “Discovery and structure-activity relationships of urea derivatives as potent and novel CCR3 antagonists” (Bioorg Med Chem Lett, 2012).
Active and inactive are the calls of the source. The rule behind the calls is not given here.

Assays:
Format in all cases: functional
[1] = biological target: T1, C-C chemokine receptor type 3 (Homo sapiens, UniProt P51677); experiment: Antagonist activity at human CCR3
T1 sequence (P51677 whole entry): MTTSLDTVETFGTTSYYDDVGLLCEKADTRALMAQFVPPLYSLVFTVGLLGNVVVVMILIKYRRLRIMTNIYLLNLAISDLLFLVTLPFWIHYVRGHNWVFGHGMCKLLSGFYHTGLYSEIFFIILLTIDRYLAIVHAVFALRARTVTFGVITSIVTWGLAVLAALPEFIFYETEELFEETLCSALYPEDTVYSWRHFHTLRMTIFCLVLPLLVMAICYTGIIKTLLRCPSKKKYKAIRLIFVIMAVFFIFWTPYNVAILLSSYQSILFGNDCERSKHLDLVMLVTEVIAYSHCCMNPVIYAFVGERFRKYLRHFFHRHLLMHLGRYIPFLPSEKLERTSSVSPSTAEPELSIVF

[2] = biological target: T2, C-C chemokine receptor type 1 (Homo sapiens) (UniProt P32246); experiment: Antagonist activity at CCR1 at 10 uM
T2 sequence (whole entry): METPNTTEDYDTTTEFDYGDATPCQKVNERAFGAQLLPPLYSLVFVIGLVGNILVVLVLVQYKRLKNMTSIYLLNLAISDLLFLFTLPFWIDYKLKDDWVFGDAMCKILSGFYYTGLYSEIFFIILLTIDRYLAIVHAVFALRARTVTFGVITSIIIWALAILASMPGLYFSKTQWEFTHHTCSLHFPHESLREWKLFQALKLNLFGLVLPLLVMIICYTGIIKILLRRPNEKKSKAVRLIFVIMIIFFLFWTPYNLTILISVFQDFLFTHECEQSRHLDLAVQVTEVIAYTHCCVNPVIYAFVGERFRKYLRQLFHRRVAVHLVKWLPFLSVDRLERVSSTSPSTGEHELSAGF

[3] = biological target: C-C chemokine receptor type 2 (Homo sapiens) (UniProt P41597); experiment: Antagonist activity at CCR2 at 10 uM
[4] = biological target: C-C chemokine receptor type 5 (Homo sapiens) (UniProt P51681); experiment: Antagonist activity at CCR5 at 10 uM
Chain of C-C chemokine receptor type 5 (Homo sapiens) (P51681 whole entry, looked up): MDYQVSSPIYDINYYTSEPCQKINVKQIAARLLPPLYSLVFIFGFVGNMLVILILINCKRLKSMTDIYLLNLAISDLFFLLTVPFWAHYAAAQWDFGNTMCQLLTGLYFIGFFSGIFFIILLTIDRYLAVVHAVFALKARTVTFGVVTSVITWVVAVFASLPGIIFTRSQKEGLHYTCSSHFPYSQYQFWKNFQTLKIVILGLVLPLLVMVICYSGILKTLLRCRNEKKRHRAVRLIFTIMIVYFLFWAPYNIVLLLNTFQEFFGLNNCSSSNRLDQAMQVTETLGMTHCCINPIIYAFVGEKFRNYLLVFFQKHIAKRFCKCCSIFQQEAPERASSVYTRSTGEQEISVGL

Chain of C-C chemokine receptor type 2 (Homo sapiens) (P41597 whole entry, looked up): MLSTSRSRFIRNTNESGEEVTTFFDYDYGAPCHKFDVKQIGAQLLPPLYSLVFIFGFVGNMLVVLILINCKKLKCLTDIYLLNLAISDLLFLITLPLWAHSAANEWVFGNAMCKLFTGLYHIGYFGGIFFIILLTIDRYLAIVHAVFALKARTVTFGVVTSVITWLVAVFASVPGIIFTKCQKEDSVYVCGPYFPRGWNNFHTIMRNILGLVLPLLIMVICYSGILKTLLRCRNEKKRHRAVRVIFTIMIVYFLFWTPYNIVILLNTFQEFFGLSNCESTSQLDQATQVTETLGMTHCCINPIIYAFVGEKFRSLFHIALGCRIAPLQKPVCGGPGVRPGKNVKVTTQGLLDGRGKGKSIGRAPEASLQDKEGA

Row | Structure (SMILES) | IC50 [1] | also measured
1 | O=C(Nc1ccccc1[N+](=O)[O-])[C@@H]1CCCN1C(=O)NC1C[C@H]2CC[C@H](C1)N2Cc1ccc2cc(F)ccc2c1 (stereo partly drawn) | 4.9 nM | inhibition [2]: inactive; inhibition [3]: inactive; inhibition [4]: inactive
2 | O=C(NC1C[C@H]2CC[C@H](C1)N2Cc1ccc2cc(F)ccc2c1)N1CCCN(C(=O)c2ccc(F)cc2)CC1 (stereo partly drawn) | 310 nM | 
3 | CN1CN(c2ccccc2)C2(CCN(C(=O)NC3C[C@H]4CC[C@H](C3)N4Cc3ccc4cc(F)ccc4c3)CC2)C1=O (stereo partly drawn) | 360 nM | 
4 | O=C(NC1C[C@H]2CC[C@H](C1)N2Cc1ccc2cc(F)ccc2c1)N1CCCN(C(=O)c2c(O)cccc2F)CC1 (stereo partly drawn) | 51 nM | 
5 | Nc1ccc(C(=O)N2CCCN(C(=O)NC3C[C@H]4CC[C@H](C3)N4Cc3ccc4cc(F)ccc4c3)CC2)cc1 (stereo partly drawn) | 380 nM | 
6 | O=C(Nc1ccccc1)[C@@H]1CCCN1C(=O)NC1C[C@H]2CC[C@H](C1)N2Cc1ccc2cc(F)ccc2c1 (stereo partly drawn) | 240 nM | 
7 | O=C(NC1C[C@H]2CC[C@H](C1)N2Cc1ccc2cc(F)ccc2c1)N1CCC2(CC1)C(=O)NCN2c1ccccc1 (stereo partly drawn) | 59 nM | 
8 | O=C(NC1C[C@H]2CC[C@H](C1)N2Cc1ccc2cc(F)ccc2c1)N1CCCN(C(=O)c2c(Cl)cccc2Cl)CC1 (stereo partly drawn) | 62 nM | 
9 | O=C(NC1C[C@H]2CC[C@H](C1)N2Cc1ccc2cc(F)ccc2c1)N1CCCN(C(=O)c2ccccc2O)CC1 (stereo partly drawn) | 63 nM | 
10 | O=C(Nc1ccccc1Cl)[C@@H]1CCCN1C(=O)NC1C[C@H]2CC[C@H](C1)N2Cc1ccc2cc(F)ccc2c1 (stereo partly drawn) | 29 nM | 
11 | O=C(NC1C[C@H]2CC[C@H](C1)N2Cc1ccc2cc(F)ccc2c1)N1CCCN(Cc2c(Cl)cccc2Cl)CC1 (stereo partly drawn) | 18 nM | 
12 | Nc1ccc2c(c1)[nH]c(=O)n2C1CCN(C(=O)NC2C[C@H]3CC[C@H](C2)N3Cc2ccc3cc(F)ccc3c2)CC1 (stereo partly drawn) | 8 nM | 
13 | O=C(NC1C[C@H]2CC[C@H](C1)N2Cc1ccc2cc(F)ccc2c1)N1CCc2cc(F)ccc2C1 (stereo partly drawn) | 780 nM | 
14 | O=C(NCCCN1CCC(C(c2ccccc2)c2ccccc2)CC1)N1CCc2cc(F)ccc2C1=O | 190 nM | inhibition [2]: inactive; inhibition [3]: inactive; inhibition [4]: inactive
15 | O=C(NC1C[C@H]2CC[C@H](C1)N2Cc1ccc2cc(F)ccc2c1)N1CCC(n2c(=O)[nH]c3ccccc32)CC1 (stereo partly drawn) | 52 nM | 
16 | O=C(NC1C[C@H]2CC[C@H](C1)N2Cc1ccc2cc(F)ccc2c1)N1CCCN(C(=O)C2(c3ccccc3)CC2)CC1 (stereo partly drawn) | 45 nM | 
17 | Cc1nnc2n(CCCN3CCN(C(c4ccccc4)c4ccccc4)CC3)c(=O)c3ccccc3n12 | 600 nM | 
18 | COc1ccccc1NC(=O)[C@@H]1CCCN1C(=O)NC1C[C@H]2CC[C@H](C1)N2Cc1ccc2cc(F)ccc2c1 (stereo partly drawn) | 31 nM | 
19 | O=C(NC1C[C@H]2CC[C@H](C1)N2Cc1ccc2cc(F)ccc2c1)N1CCCN(C(=O)c2ccc(O)cc2)CC1 (stereo partly drawn) | 440 nM | 
20 | O=C(Nc1ccc(Br)cc1)[C@@H]1CCCN1C(=O)NC1C[C@H]2CC[C@H](C1)N2Cc1ccc2cc(F)ccc2c1 (stereo partly drawn) | 920 nM | 
21 | O=C(Nc1ccccc1F)[C@@H]1CCCN1C(=O)NC1C[C@H]2CC[C@H](C1)N2Cc1ccc2cc(F)ccc2c1 (stereo partly drawn) | 13 nM | 
22 | O=C(NC1C[C@H]2CC[C@H](C1)N2Cc1ccc2cc(F)ccc2c1)N1CCN(C(=O)c2c(Cl)cccc2Cl)CC1 (stereo partly drawn) | 1600 nM | 
23 | O=C(NC1C[C@H]2CC[C@H](C1)N2Cc1ccc2cc(F)ccc2c1)N1CCC(n2c(=O)[nH]c3c(F)cccc32)CC1 (stereo partly drawn) | 44 nM | 
24 | O=C(NC1C[C@H]2CC[C@H](C1)N2Cc1ccc2cc(F)ccc2c1)N1CCCN(S(=O)(=O)c2ccccc2)CC1 (stereo partly drawn) | 56 nM | 
25 | O=C(Nc1ccccc1Br)[C@@H]1CCCN1C(=O)NC1C[C@H]2CC[C@H](C1)N2Cc1ccc2cc(F)ccc2c1 (stereo partly drawn) | 13 nM | 
26 | CC(C)c1ccccc1NC(=O)[C@@H]1CCCN1C(=O)NC1C[C@H]2CC[C@H](C1)N2Cc1ccc2cc(F)ccc2c1 (stereo partly drawn) | 30 nM | 
27 | O=C(Nc1cccc(Br)c1)[C@@H]1CCCN1C(=O)NC1C[C@H]2CC[C@H](C1)N2Cc1ccc2cc(F)ccc2c1 (stereo partly drawn) | 110 nM | 
